# According to ChEMBL document CHEMBL4627257, “Targeting the DNA damage response (DDR) by natural compounds” (Bioorg Med Chem, 2020):
# Active and inactive are the calls of the source. No cut-off for these calls is given here.
# Tests used:
# SU.86.86 [1] = experiment: Induction of DNA damage in human SU8686 cells assessed as increase in gammaH2AX phosphorylation at […] at cytotoxic IC50 in presence of 5 uM cisplatin by fluorometry method; type: functional
# SU.86.86 [2] = experiment: Induction of DNA damage in human SU8686 cells assessed as increase in gammaH2AX phosphorylation at […] at cytotoxic IC50 in presence of 0.3 uM doxorubicin by fluorometry method; type: functional
# SU.86.86 [3] = experiment: Induction of DNA damage in human SU8686 cells assessed as increase gammaH2AX protein level at IC50 for 24 hrs in presence of 5 uM cisplatin by western blot analysis; type: functional, cell-based
# SU.86.86 [4] = experiment: Induction of DNA damage in human SU8686 cells assessed as increase in gammaH2AX nuclear foci under basal condition at IC50 by fluorometry method; type: functional, cell-based
# SU.86.86 [5] = experiment: Induction of DNA damage in human SU8686 cells assessed as increase in gammaH2AX phosphorylation at […] at cytotoxic IC50 incubated for 24 hrs by fluorometry method; type: functional
# SU.86.86 [6] = experiment: Induction of DNA damage in human SU8686 cells assessed as tail DNA formation at IC50 by alkaline Comet assay; type: functional, cell-based
# SU.86.86 [7] = experiment: Induction of DNA damage in human SU8686 cells assessed as increase gammaH2AX protein level at IC50 for 24 hrs by western blot analysis; type: functional, cell-based
# SU.86.86 [8] = experiment: Induction of DNA damage in human SU8686 cells assessed as increase gammaH2AX protein level at IC50 for 24 hrs in presence of 0.3 uM doxorubicin by western blot analysis; type: functional, cell-based
Compound,Activity (SU.86.86 [2]) [%],other results
CCCc1cc(OC)cc(O)c1C(=O)Oc1c(OC)cc(CCC)c(C(=O)O)c1O,,Activity (SU.86.86 [1]): >20%
Oc1c(Br)cc(Br)cc1Oc1ccc(Br)cc1Br,>20,Activity (SU.86.86 [1]): >20%
COc1cc(O)c2c(c1)C(=O)c1cc(C)c(O)cc1C2=O [MACROSPORIN],>20,
COC1=C(Br)[C@H](O)[C@](O)(CC#N)C=C1Br,>20,
CC1=CCC[C@H]2[C@](C)(Cc3cc(O)ccc3O)[C@@H](C)CC[C@]12C [AVAROL],>20,
O=C1c2cccc(O)c2C(=O)c2c(O)cc(CO)cc21 [ALOE-EMODIN],>20,
COc1cc(C[C@H]2COC(=O)[C@@H]2Cc2ccc(O)c(OC)c2)ccc1O [MATAIRESINOL],>20,
C=C1CCC[C@H]2[C@](C)(CC3=C(O)C(=O)C=C(OC)C3=O)[C@@H](C)CC[C@@]12C,>20,Activity (SU.86.86 [3]): Active; Activity (SU.86.86 [4]): Active; Activity (SU.86.86 [5]): >30%; Activity (SU.86.86 [1]): >20%; Activity (SU.86.86 [6]): Active; Activity (SU.86.86 [7]): Active; Activity (SU.86.86 [8]): Active
CCOC(=O)c1cc(Br)c(Br)[nH]1,>20,
CC1=C(CC/C(C)=C/CC/C(C)=C/CCC2=CC(=O)OC2O)C(C)(C)CCC1 (configuration not stated) [LUFFARIELLOLIDE],>20,Activity (SU.86.86 [1]): >20%
COC(=O)c1cc(O)cc(OC)c1C(=O)c1c(O)c(Cl)c(C)c(Cl)c1O [DIHYDROGEODIN],>20,
CC[C@H](C)C1C(=O)O[C@H](C(C)C)C(=O)N(C)[C@@H]([C@@H](C)CC)C(=O)O[C@H](C(C)C)C(=O)N(C)[C@@H](C(C)C)C(=O)O[C@H](C(C)C)C(=O)N1C (some centres not stated),>20,
CC(C)=CCc1cc(-c2coc3cc(O)ccc3c2=O)ccc1O [NEOBAVAISOFLAVONE],>20,Activity (SU.86.86 [1]): >20%
Cc1cc(O)cc2c1Oc1cc(O)cc(C)c1C(=O)O2,>20,Activity (SU.86.86 [1]): >20%
COC1=C(Br)[C@H](O)[C@@]2(C=C1Br)CC(C(=O)NCCCCNC(=O)C1=NO[C@]3(C=C(Br)C(OC)=C(Br)[C@@H]3O)C1)=NO2 [AEROTHIONIN],>20,
CC(=O)c1c(O)cc(O)cc1C[C@@H]1Cc2cc(O)cc(O)c2C(=O)O1,,Activity (SU.86.86 [5]): >30%
COC(C)CCOC(=O)c1cc(O)c(O)c(O)c1 (configuration not stated),,Activity (SU.86.86 [5]): >30%
Oc1cccc2c1[nH]c1c(C3=C[C@@]4(O)CC/C=C\CCCCN5CC[C@@H]3[C@]3(C[C@@H]6/C=C\CCCCN6[C@H]34)C5)nccc12,>20,Activity (SU.86.86 [1]): >20%
COc1cc(O)c2c(c1)C(=O)C1=C(C2=O)[C@H](O)[C@@H](O)[C@@](C)(O)[C@@H]1O [ALTERSOLANOL A],>20,Activity (SU.86.86 [1]): >20%
CCCCCC(N)=O,>20,Activity (SU.86.86 [5]): >30%
COC1=CC(=O)[C@]2(C=C1OC)OC[C@H]1Oc3c4c(cc(O)c3C(=O)[C@H]12)OC(C)(C)C=C4,,Activity (SU.86.86 [5]): >30%
CCCCCC[C@H](C)/C=C(C)/C=C/C(=O)N[C@@H]1C[C@@]2(O[C@@H]1O)[C@@H]1O[C@@H]1C(=O)[C@@H]1O[C@@H]12,>20,
Cc1cc(O)cc2c1Oc1cc(O)c(O)c(C)c1C(=O)O2,,Activity (SU.86.86 [5]): >30%
CC[C@H](C)[C@H]1C(=O)N[C@@H](Cc2ccc(OCC=C(C)C)cc2)C(=O)N(C)[C@@H](C)C(=O)O[C@@H](Cc2ccccc2)C(=O)N2CCC[C@H]2C(=O)N[C@H](C(=O)O)C(=O)N1C,>20,
COc1cc(O)c2c(=O)oc3cc(O)cc(C)c3c2c1,>20,
C[C@H]1CCC/C=C\C(=O)Cc2cc(O)cc(O)c2C(=O)O1,,Activity (SU.86.86 [5]): >30%
O=c1[nH]c2ccccc2c(-c2ccccc2)c1O,>20,
CCCCCc1cc(OC)c(OC(=O)c2c(O)cc(OC)cc2CCC)c(O)c1C(=O)O,>20,
